Laboratory results published in patent publication US9018173B2, “Materials and methods for suppressing inflammatory and neuropathic pain” (Indiana University Research and Technology Corp., priority 2010, dated 2015).
Residues, ends and D or L forms follow the SMILES beside them.

Assays:
[1] = system: capsaicin-evoked nocifensive behavior; assay: Capsaicin eye-wipe test; assay type: in vivo, rat; details: peptide alone
Description: Referring now to FIG. 16. TAT-CBD3 reduces acute, inflammatory and neuropathic pain. (FIG. 16A) Time course of number of flinches following subcutaneous (dorsal surface of paw) injection of formalin (2.5%; 50 μl saline) in animals pretreated with peptides (3-100 μM; 20 μl dorsal surface of paw) 30 min before formalin (n=4-10). (FIG. 16B) The effect of peptides on number of flinches on formalin-induced phase 1 (0-10 min) and phase 2 (15-60 min). *, p<0.05 versus formalin-injected animals. (FIG. 16C) Formalin induces paw edema. Paw thickness was measured 1 h after injection of saline, formalin, and formalin+peptides (100 μM). *, p<0.05 versus saline-injected animals. (FIG. 16D) Pretreatment with TAT-CBD3 attenuates capsaicin-evoked nocifensive behavior. […]
Eye-wipe test. […] TAT CBD3 peptide, TAT control peptide or vehicle was pipetted directly into the right eye in a volume of 40 μl and the resulting nocifensive behavior was measured. […] This nocifensive behavior was recorded for five minutes and followed by capsaicin (3 μM in 40 μl saline) application into the pretreated eye. Nocifensive behavior was again quantified for 5 minutes following capsaicin application, as described previously. […] Significant differences between groups were assessed by two-way analysis of variance with Bonferroni post-tests. Data were analyzed with GraphPad Prism 4.0 (GraphPad, San Diego, Calif., USA). […]

[2] = system: capsaicin-induced meningeal blood flow changes; details: read-out: IC50 of percent inhibition of capsaicin-induced blood flow; dural application; versus averaged TAT-scramble; n=4-5
[3] = system: CaV2.2 cytosolic loop 1 (L1) and distal C-terminus (Ct-dis); assay: Surface plasmon resonance binding to CaV2.2 L1- and Ct-dis-GST fusion proteins; parameters: species or system rat; details: peptide 1/3/5 μM
Description: In Vitro Protein Binding Assays. Using Vector NTI (v. 11; Invitrogen) software, primers were designed to amplify regions corresponding to the first cytoslic loop (L1; amino acids 356 to 483) and the distal end of the C-terminus (Ct-dis; amino acids 2133 to 2348) of rat CaV2.2 cDNA from P3 rat brain cDNA. The primers harbored restriction sites (Bam HI or Bgl II (5′) and Eco RI or Mfe I (3′)) to facilitate cloning into […]. In addition to the GST-tag, this vector contains the Glu tag, a sequence of six amino acids (EYMPME). Correctly-amplified PCR products and parent pGex-3x-Glu vector were digested with the indicated restriction enzymes, and then extracted following electrophoresis on an agarose gel. The extracted DNAs were quantified (Nanodrop 1000, Thermo Scientific), and ligations were performed using 6:1 and 3:1 insert to vector molar ratios. […]
Surface Plasmon resonance (SPR). Binding analyses between TAT CBD3 or TAT control peptides and CaV2.2 L1- or Ct-dis-GST fusion proteins was determined by surface plasmon resonance using a BIAcore3000 instrument (Biacore AB, Uppsala, Sweden). […]
Biochemistry and immunocytochemistry experiments. […] The binding between TAT CBD3 or TAT control peptides and CaV2.2 L1- or Ct-dis-GST fusion proteins was determined by surface plasmon resonance using a BIAcore3000 instrument (Biacore AB, Uppsala, Sweden).

Compound	nocifensive behavior on application alone to the cornea [1]	IC50 [2] [µM]	binding to immobilized L1 and Ct-dis proteins (surface plasmon resonance) [3]
CC(C)C[C@H](NC(=O)CNC(=O)[C@H](CCCNC(=N)N)NC(=O)[C@@H]1CCCN1C(=O)[C@@H](NC(=O)CNC(=O)[C@H](CCCNC(=N)N)NC(=O)[C@H](CC(C)C)NC(=O)[C@H](CCC(=O)O)NC(=O)[C@H](C)NC(=O)[C@H](CC(C)C)NC(=O)[C@H](CCCNC(=N)N)NC(=O)[C@H](CO)NC(=O)[C@H](CCCNC(=N)N)NC(=O)[C@H](C)NC(=O)[C@H](CCCNC(=N)N)NC(=O)[C@H](CCCNC(=N)N)NC(=O)[C@H](CCCNC(=N)N)NC(=O)[C@H](CCC(N)=O)NC(=O)[C@H](CCCNC(=N)N)NC(=O)[C@H](CCCNC(=N)N)NC(=O)[C@H](CCCCN)NC(=O)[C@H](CCCCN)NC(=O)[C@H](CCCNC(=N)N)NC(=O)CNC(=O)[C@@H](N)Cc1ccc(O)cc1)C(C)C)C(=O)O [TAT-CBD3] (H-YGRKKRRQRRRARSRLAELRGVPRGL-OH; N-terminus and C-terminus assumed)	did not induce nocifensive behavior	3.1 ± 1.1	
ARSRLAELRGVPRGL (CBD3)			bound to immobilized L1 and Ct-dis proteins
